One may read the IC50 as the concentration at which inhibition is half-maximal. What is called MBC is the smallest concentration meeting the test's criterion for killing. The Ki is the dissociation constant of the complex between target and ligand, obtained from inhibition or displacement. A lower Ki goes with a stronger hold on the target. One may read the inhibition as the percentage by which the read-out fell short of the control.

The values below come from article PMC8284453 (Antimicrobial Agents and Chemotherapy, 2021).

Data set [1] concerns the target T1, CTX-M-15 (Escherichia coli, UniProt Q9EXV5). Description: IC50 determination against purified β-lactamase. The data set is classed as biochemical. Set-up: made in house; host or cells: E. coli BL21(DE3), plasmid pET-CTX-M-15 (pET9a). The method, then:
(§1) An equal volume of enzyme was added (assay concentrations, 0.6 nM P99AmpC, 21 nM CTX-M-15, 3 nM KPC-2, 100 nM SHV-5), and the mixtures were preincubated for 15 min at 37°C. For AmpC, nitrocefin was then added to obtain a final concentration of 100 μM, and the absorbance at a wavelength (λ) of 486 nm (representing hydrolysis of the nitrocefin β-lactam ring) was monitored immediately using a BioTek Powerwave XS2 microplate reader. In similar fashion, using UV-transparent 96-well microtiter plates, hydrolysis of imipenem (100 μM) by KPC-2 was monitored at λ 300 nm, while cefotaxime (100 μM) hydrolysis by CTX-M-15 and SHV-5 was monitored at λ 300 nm. Assays were performed in duplicate, and the percentage inhibition relative to reaction mixtures containing no inhibitor were determined for each concentration of inhibitor.

In another data set the target is T2, CMY-2 (Klebsiella pneumoniae, UniProt Q48434).
T2 construct: made in house; host or cells: E. coli BL21(DE3), pET9a
Put plainly: IC50 determination against purified β-lactamase. The format is biochemical.

The target in a further data set is T3, OXA-1 (Escherichia coli, UniProt P13661).
T3 construct: made in house; host or cells: E. coli BL21(DE3), pET9a
Put plainly: IC50 determination against purified β-lactamase. The format is biochemical. The following applies: substrate nitrocefin; mean from duplicate measurements.

Data set [2] deals with T4, P99AmpC (Enterobacter cloacae, UniProt P05364). Put plainly: IC50 determination against purified β-lactamase. The format is biochemical. Set-up: P99AmpC was purified directly from the Enterobacter cloacae P99 clinical isolate; made in house; host or cells: Enterobacter cloacae P99 (native producer, induced with sub-MIC imipenem). To be noted: substrate nitrocefin; mean from duplicate measurements. Here is the method:
as §1

For data set [3], the target named is T5, KPC-2 (Klebsiella pneumoniae, UniProt Q9F663). Put plainly: IC50 determination against purified β-lactamase. The data set is classed as biochemical. The following applies: substrate imipenem; mean from duplicate measurements. Details: made in house; host or cells: E. coli BL21(DE3), plasmid pET-KPC-2 (pET9a). The method, then: as §1
Another data set deals with T6, OXA-48 (Klebsiella pneumoniae, UniProt Q6XEC0).
T6 construct: made in house; host or cells: E. coli BL21(DE3), plasmid pET-OXA-48 (pET9a)
Description: biochemical.

The test system of data set [4] is isogenic strains of E. coli expressing Ambler class A, B, C, and D enzymes. Description: microbe, parasite or virus in culture. To be noted: Escherichia coli, read-out: modal MIC. The format is cell-based, Escherichia coli.
Data set [5] concerns E. coli ESBL4 (CTX-M-15). Put plainly: Broth microdilution MIC. To be noted: Escherichia coli. The data set is classed as cell-based.
Data set [6] has as its system E. coli ESBL4 (CTX-M-15). Put plainly: 24-h time-kill assay. The format is cell-based. To be noted: Escherichia coli; lowest concentration with ≥3-log10 CFU/ml reduction at 24 h; read-out: MBC. Here is the method:
(§2) In vitro antibacterial time-kill assay. […] Time-kill assays were performed in 14 ml glass tubes or deep-well storage plates with a bacterial inoculum in CAMHB of 5 × 10^5 CFU/ml. The tubes/plates were incubated at 37°C with shaking at 200 rpm, and aliquots were drawn at six time points (0, 2, 4, 6, 8, and 24 h) to conduct 0.5 log10 dilutions in CAMHB in 96-well plates that were incubated overnight at 37°C and used to ascertain viable bacterial counts. The lowest quantifiable amount by this method is 2 log10 CFU/ml.

Data set [7] deals with E. cloacae ECL01 (TEM-72, ACT-1, P99AmpC). Description: 24-h time-kill assay. The format is cell-based. The method, then: as §2
Data set [8] concerns K. pneumoniae ATCC BAA-1705 (KPC-2). Description: 24-h time-kill assay. The format is cell-based. To be noted: Klebsiella pneumoniae, ATCCBAA1705; lowest concentration with ≥3-log10 CFU/ml reduction at 24 h; read-out: MBC. Here is the method:
as §2

For data set [9], the system named is K. pneumoniae 752286 (OXA-48). Put plainly: 24-h time-kill assay. To be noted: Klebsiella pneumoniae; lowest concentration with ≥3-log10 CFU/ml reduction at 24 h; read-out: MBC. The format is cell-based. The method, then: as §2
Data set [10] has as its system E. cloacae ECL01 (TEM-72, ACT-1, P99AmpC). Put plainly: Broth microdilution MIC. The data set is classed as cell-based. To be noted: Enterobacter cloacae.
Data set [11] has as its system K. pneumoniae 752286 (OXA-48). Description: Broth microdilution MIC. The format is cell-based. The following applies: Klebsiella pneumoniae. For orientation: Broth dilution looks for growth in wells or tubes with falling amounts of substance.
The subject of data set [12] is K. pneumoniae ATCC BAA-1705 (KPC-2). Description: Broth microdilution MIC. The format is cell-based. The following applies: Klebsiella pneumoniae, ATCCBAA1705.
Data set [13] deals with serine β-lactamases (CTX-M-15, SHV-5, KPC-2, P99AmpC). Put plainly: Kinetic parameters, summary across enzymes. To be noted: range across the four enzymes. The data set is classed as biochemical.
Data set [14] concerns the target T1, CTX-M-15. Put plainly: biochemical.
In a further data set the target is T7, SHV-5 (Klebsiella pneumoniae, UniProt P0A3M1).
T7 construct: made in house; host or cells: E. coli BL21(DE3)/pLysS, plasmid pET-SHV-5 (pET9a)
Description: biochemical. The data set is classed as biochemical.

In the next data set the test system is 3T3. Description: Mammalian cell cytotoxicity. The format is cell-based. To be noted: dividing cell cultures. Here is the method:
(§3) Mammalian cell cytotoxicity. Cytotoxicity evaluations were conducted on actively dividing cells to maximize assay sensitivity. Procedurally, 180 μl of cells were seeded in cell-culture-treated 96-well plates (Celltreat, Pepperell, MA) at a density of 2 × 10^4 to 3.5 × 10^4 cells/ml and incubated overnight at 37°C in a humidified, 5% CO2 atmosphere. The next day, compound was diluted in PBS with 6% DMSO in a 0.5 log10 dilution scheme at 10 times the final compound concentration array. […] The cytotoxic agent chlorohexidine was assayed as a positive control at compound concentrations ranging from 0.31 to 100 μg/ml. The final DMSO concentration in all assays was 0.6%.
(§4) After an additional 72 h of incubation (when cells reached 90 to 100% confluence) Cell Titer 96 AQ solution was added at 20 μl per well, and plates were incubated an additional 2 to 4 h at 37°C and 5% CO2. The optical density of the wells was read on a Biotek Cytation 3 plate reader at 490 nm. Background signal (wells receiving Cell Titer reagent but containing no cells) was subtracted from all wells on the plate. […] Experiments were run in triplicate with data from all three trials included in the data analysis.

The next data set deals with HeLa. Description: Mammalian cell cytotoxicity. The data set is classed as cell-based. The following applies: dividing cell cultures. Here is the method:
as §3, §4

The subject of the next data set is MRC-5. Put plainly: Mammalian cell cytotoxicity. The data set is classed as cell-based. The following applies: dividing cell cultures. Here is the method: as §3, §4
In data set [15] the target is T8, protein tyrosine kinase Fyn (Homo sapiens, UniProt P06241).
T8 construct: Eurofins/Panlabs (DrugMatrixScreen, contract assay)
Put plainly: DrugMatrixScreen selectivity panel. The data set is classed as biochemical. The following applies: screening concentration of 100 μM. Here is the method:
(§5) Binding, enzymatic, and uptake assays representing a wide range of cellular and subcellular target classes were performed. […] The in vivo significance of these in vitro activities is not known.
(§6) The selectivity of VNRX-5236 was assessed in the DrugMatrixScreen at Eurofins Discovery Services. This screen encompasses 123 mammalian receptor and enzyme classes (and a single prokaryotic target, a β-lactamase) that can be used to assess the potential off-target activities of development candidates ([34]).

The target of data set [16] is T9, protein serine/threonine phosphatase, PPP3CA (calcineurin PP2B) (Homo sapiens, UniProt Q08209).
T9 construct: Eurofins/Panlabs (DrugMatrixScreen, contract assay)
Put plainly: DrugMatrixScreen selectivity panel. To be noted: screening concentration of 100 μM. The data set is classed as biochemical. The method, then:
as §5, §6

Data set [17] concerns the target T5, KPC-2. Description: biochemical.
Data set [18] concerns the target T4, P99AmpC. Put plainly: Kinetic parameters of reversible inactivation.
The subject of data set [19] is four strains of Gram-positive organisms or nine strains of Gram-negative bacilli. Description: Stand-alone antibacterial activity. The format is cell-based. To be noted: all MICs.
Data set [20] can be described thus: DrugMatrixScreen selectivity panel. To be noted: 10 μM; 129 in vitro assays. The method, then:
as §5, §6

Details of data set [21]: method as in earlier work. The following applies: cited from earlier work.
The mark [22] stands for this setting: substrate cefotaxime, mean from duplicate measurements, read-out: IC50.
Where [23] appears, read: substrate nitrocefin, mean from duplicate measurements, read-out: IC50.
[24] abbreviates: half-life of active site occupancy.

≈ marks a conversion by molar mass, not a printed value. Read-outs that look alike come from different tables or passages of the source. Where only a bound is given, the exact number is not on record here.

Consider `NC(=O)[C@@H]1CC[C@@H]2CN1C(=O)N2OS(=O)(=O)O` [Avibactam, avibactam], for which the IC50 is 0.003 µM at CTX-M-15 [1] (setting [22]), 0.007 µM at CMY-2 (setting [23]), 0.04 µM on OXA-1 and 0.02 µM at P99AmpC [2].

As for `O=C(O)[C@H]1/C(=C/CO)O[C@@H]2CC(=O)N21` [Clavulanic acid, clavulanic acid], the IC50 on CTX-M-15 [1] (setting [22]) was determined as 0.04 µM; at KPC-2 [3], 1.8 µM; at OXA-1, 0.12 µM; on OXA-48, 14.3 µM. Besides, in data set [4], the MIC is 32 µg/mL (≈ 161 µM).

Regarding `C[C@H]1COc2c(N3CCN(C)CC3)c(F)cc3c(=O)c(C(=O)O)cn1c23` [Levofloxacin, levofloxacin], the MIC in the data set with E. coli ESBL4 (CTX-M-15) [5] stood at 32 µg/mL (≈ 88.6 µM); in [10], 0.12 µg/mL (≈ 0.332 µM); in data set [11], 32 µg/mL (≈ 88.6 µM); in data set [12] it was 64 µg/mL (≈ 177 µM). Also, the MBC with E. coli ESBL4 (CTX-M-15) [6] is 32 µg/mL (≈ 88.6 µM); in data set [7] (Enterobacter cloacae, lowest concentration with ≥3-log10 CFU/ml reduction at 24 h, read-out: MBC), 0.12 µg/mL (≈ 0.332 µM); in data set [8] it was at least 64 µg/mL; in data set [9], over 32 µg/mL. In data set [7] (Fig. 3b), the “outcome of 24-h time-kill assay” value is “bactericidal activity”.

`C[C@]1(Cn2ccnn2)[C@H](C(=O)O)N2C(=O)C[C@H]2S1(=O)=O` [Tazobactam, tazobactam]: the IC50 against KPC-2 [3] was determined as 1.7 µM; at CMY-2 (setting [23]) it was 0.41 µM; against OXA-48, 3.5 µM.

Consider `CCC(=O)N[C@H]1Cc2cccc(C(=O)O)c2OB1O` [VNRX-5236], for which the “Dissociation rates (k-2)” value in data set [13] was 2.5 to 24 10^−4 s^−1. Besides, the Ki in data set [13] is 0.01 to 0.11 µM; on CTX-M-15 [14], 0.01 µM; on SHV-5, 0.04 µM; on KPC-2 [17], 0.11 µM. Further, the IC50 worked out at 0.02 µM at CTX-M-15 [1], 0.08 µM against KPC-2 [3], 0.01 µM on CMY-2 and 0.07 µM against OXA-1. Further, the t1/2 on CTX-M-15 [14] (setting [24]) is 26 ± 0.6 min; on KPC-2 [17] (setting [24]), 46 ± 2 min; at P99AmpC [18] (setting [24]), 5 ± 0.1 min. Besides, the “k−2” value at CTX-M-15 [14] (off rate, jump dilution) is given as 4.5 ± 0.1 10^−4 s^−1; on SHV-5 (off rate, jump dilution) it was 12.7 ± 0.07 10^−4 s^−1; at KPC-2 [17] (off rate, jump dilution) it was 2.5 ± 0.1 10^−4 s^−1; at P99AmpC [18] (off rate, jump dilution) it was 24 ± 0.5 10^−4 s^−1. The “noncytotoxic up to the highest concentration tested” value in the data set on 3T3, in the data set with HeLa and in the data set with MRC-5 was over 1 mg/mL throughout. Moreover, the inhibition at 100 µM in data set [15] was determined as 77%; in data set [16], 56%. In data set [19], the MIC was at least 128 µg/mL.

`CCC(=O)N[C@H]1Cc2cccc(C(=O)OCOC(=O)C(CC)CC)c2OB1O` [VNRX-7145]: the off-target findings result in data set [20] is listed as “no notable off-target findings”. Besides, the “noncytotoxic up to the highest concentration tested” value with 3T3 and with MRC-5 was over 0.128 mg/mL each time. For the same molecule, the “levels of circulating VNRX-7145” value in data set [21] (all PK time points) was “exceedingly low”. In [21] (rats, dogs, and monkeys), the oral bioavailability result was “high oral bioavailability”. Besides, the MIC in data set [19] was at least 128 µg/mL.
